Results published in US20260007634A1, “PHARMACEUTICAL COMPOSITIONS FOR THE TREATMENT OF ALLERGIC DISEASES” (KINKI UNIVERSITY, priority 2022, published 2026).

Legend:
[1] = tested on: BAFF; assay: Serum BAFF ELISA, bronchial asthma mice; format: in vivo, mouse; conditions: OVA bronchial asthma; serum day 28; oral 10 mg/kg (dexamethasone 2 mg/kg); control 97, vehicle 1319
Protocol: (§1) A 0.2 mL dose of 50 μg ovalbumin (OVA) and 2 mg Alum mixture was administered to 6-week-old female Balb/c mice (Japan SLC Inc.) (day 0 of the example). Alum was used as an adjuvant. Seven days later and 14 days later, the Balb/c mice were immunized again with 0.2 mL injections of the above mixture. Starting on day 20, mice were orally treated with 10 mg/kg of norathyriol, 10 mg/kg of mangiferin 8a, 10 mg/kg of tofacitinib (JAK inhibitor), 2 mg/kg of dexamethasone (steroid) and 10 mg/kg of olopatadine (antihistamine) daily for 8 consecutive days. Starting on day 21, 400 μg OVA was administered intranasally, and cough was measured on day 27. […]
Serum was collected from day 28 mice in Examples 14, and BAFF production was measured by enzyme-linked immunosorbent assay (ELISA). This assay was performed using a mouse BAFF ELISA kit (R&D).

[2] = tested on: IL-4; assay: Serum IL-4 ELISA, cedar pollinosis mice; format: in vivo, mouse; conditions: serum day 28, oral 10 mg/kg (dexamethasone 2 mg/kg), control 55, vehicle 374
Protocol: as §1, with “of 100” for “of 50”, “μg cedar pollen” for “μg ovalbumin (OVA)”, “and 1” for “and 2”, “21, 500” for “21, 400”, “μg cedar pollen” for “μg OVA”, “and nose-scratching behavior” for “and cough”
Serum was collected from day 28 mice in Examples 28 and 29, and IL-4 production was measured by enzyme-linked immunosorbent assay (ELISA). This assay was performed using a mouse IL-4 ELISA kit (R&D).

[3] = tested on: IL-5; assay: Serum IL-5 ELISA, food allergy mice; format: in vivo, mouse; conditions: OVA food allergy; serum day 28; oral 10 mg/kg (dexamethasone 2 mg/kg); control 135, vehicle 916
Protocol: (§2) A 0.2 mL dose of 10 μg ovalbumin (OVA) and 1 mg Alum mixture was administered to 6-week-old female Balb/c mice (Japan SLC Inc.) (day 0 of the example). Alum was used as an adjuvant. Seven days later, the Balb/c mice were immunized again with a 0.2 mL injection of the above mixture. Starting on day 14, mice were orally treated with 10 mg/kg of norathyriol, 10 mg/kg of mangiferin 8a, 10 mg/kg of tofacitinib (JAK inhibitor), 2 mg/kg of dexamethasone (steroid) and 10 mg/kg of olopatadine (antihistamine) daily for 14 consecutive days. […]
Serum was collected from day 28 mice in Examples 21, and IL-5 production was measured by enzyme-linked immunosorbent assay (ELISA). This assay was performed using a mouse IL-5 ELISA kit (R&D).

[4] = tested on: IgE antibody; assay: Serum IgE antibody ELISA, food allergy mice; format: in vivo, mouse; conditions: OVA food allergy; serum day 28; oral 10 mg/kg (dexamethasone 2 mg/kg); control 56, vehicle 124
Protocol: as §2
Serum was collected from day 28 mice in Examples 21, and IgE antibody production was measured by enzyme-linked immunosorbent assay (ELISA). This assay was performed using a mouse IgE antibody ELISA kit (R&D).

[5] = tested on: B cells collected from mice; assay: BAFF-induced differentiation into plasma cells (CD138 flow cytometry); format: cell-based, mouse; conditions: 100 ng/mL BAFF, 10 days; 100 μM mangiferin, 20 μM 1,3,5,6-tetrahydroxyxanthone, 10 μM others; vs BAFF-added group
Protocol: (§3) B cells collected from mice were cultured in RPMI 1640 medium for 1 day. Then, 100 μM mangiferin, 10 μM mangiferin 8a, 10 μM norathyriol, 20 μM 1,3,5,6-tetrahydroxyxanthone, 10 μM xanthohydrol, 10 μM α-mangostin, 10 μM of γ-mangostin were added to B cell, and after 1 day of culture, 100 ng/mL of BAFF was added, followed by 10 days of culture. After 10 days of culture, cells were stained with anti-CD138 antibody, a marker of plasma cells, and CD138 expression was measured using BD LSRFortessa.
In all figures, the horizontal axis represents the expression level of CD138 and the vertical axis represents the number of cells.

[6] = tested on: IgE antibody; assay: Serum IgE antibody ELISA, atopic dermatitis mice; format: in vivo, mouse; conditions: day 7, topical application, control 1214, vehicle (MC903) 2588
Protocol: MC903 at 2 nM was applied to the right auricle of a 6-week-old male Balb/c (Japan SLC Inc.). Starting 8 h later, 5% norathyriol aqueous solution (1 mL of ethanol containing […] of norathyriol), betamethasone ointment, and delgocitinib ointment were applied to the auricle for 7 days. The measurement of auricular skin swelling was calculated by calipers. The day on which the first application of the compound was made was defined as day 0. Betamethasone and delgocitinib are currently in clinical use in atopic dermatitis and were used as control drugs in this example.
Serum was collected from mice on day 7 in Example 1, and IgE antibody production was measured by enzyme-linked immunosorbent assay (ELISA). This assay was performed using a mouse IgE antibody ELISA kit (R&D).

[7] = tested on: B cells collected from mice; assay: BAFF-induced differentiation into mature B cells (IgM/IgD flow cytometry); format: cell-based, mouse; conditions: 100 ng/mL BAFF, 10 days, 100 μM mangiferin, 20 μM 1,3,5,6-tetrahydroxyxanthone, 10 μM others
Protocol: as §3, with “anti-IgM and anti-IgD antibodies, markers” for “anti-CD138 antibody, a marker”, “B” for “plasma”, “the” for “CD138”, “expression of IgM and IgD” for “expression”, “LSRFortessa. Note that IgM negative and IgD negative indicates pre-B cells, IgM positive and IgD negative indicates immature B cells, and IgM positive and IgD positive indicates mature B cells.” for “LSRFortessa.”

Compound | amount of BAFF [1] | amount of IL-4 [2] | amount of IL-5 [3] | amount of IgE antibody [4] | CD138 expression [5] | amount of IgE antibody [6] | population IgM positive and IgD positive (mature B cells) ([7]; control 0, BAFF only 45.6) | population IgM positive and IgD negative (immature B cells) ([7]; control 0.529, BAFF only 42.3) | population IgM negative and IgD negative (pre-B cells) ([7]; control 99.5, BAFF only 11.7)
C[C@@H]1C[C@H]2[C@@H]3CCC4=CC(=O)C=C[C@]4(C)[C@@]3(F)[C@@H](O)C[C@]2(C)[C@@]1(O)C(=O)CO [dexamethasone] | 321 pg/mL | 78 pg/mL | 249 pg/mL | 36 ng/mL |  |  |  |  | 
O=c1c2cc(O)c(O)cc2oc2cc(O)cc(O)c12 [norathyriol, 1,3,6,7-tetrahydroxyxanthone] | 649 pg/mL | 111 pg/mL | 475 pg/mL | 84 ng/mL | significantly decreased CD138 expression | 1692 ng/mL | 0.062% | 1.46% | 98.5%
CN(C)CC/C=C1/c2ccccc2COc2ccc(CC(=O)O)cc21 [olopatadine] | 1304 pg/mL | 263 pg/mL | 832 pg/mL | 111 ng/mL |  |  |  |  | 
C[C@@H]1CCN(C(=O)CC#N)C[C@@H]1N(C)c1ncnc2[nH]ccc12 [tofacitinib] | 902 pg/mL | 213 pg/mL | 791 pg/mL | 106 ng/mL |  |  |  |  | 
